In patent US8106052B2, “Luminescence-based methods and probes for measuring cytochrome P450 activity” (Promega Corporation, priority 2002, dated 2012):
Read-outs that look alike come from different tables or passages of the source.

Experiments:
[1] = test system: pooled human liver microsomes; assay: Pooled human liver microsomes in two-step luminescent CYP450 reaction; conditions: for Effect on activity against Luc BE: substrate Luc BE, ketoconazole 100 micromolar; for CYP450 activity detected with the substrate compared to Sf9 cell membranes: pooled human liver microsomes, 60 minutes at 37° C.
Procedure: FIG. 8. Pooled human liver microsomes in two-step luminescent CYP450 reactions. D-luciferin derivatives were incubated in a CYP450 reaction mix with pooled human liver microsomes for 60 minutes at 37° C. before combining with a luciferase reaction mixture. For controls liver microsomes were replaced with control (no CYP450) Sf9 cell membranes. Luminescence was read within 12 minutes of combining the reactions on a Berthold Orion luminometer. […] Values labeled “nt” are vehicle controls.
(§1) In this Example, a procedure for a two-step CYP450/luciferase assay is provided. Luciferin derivatives were evaluated as P450 substrates and luciferase pro-substrates using this procedure. 20 microliter CYP450 reactions were prepared at pH 7.4 in an amount of KPO4 buffer that is optimal for a given CYP450 isoform (100 mM for CYP1A1, CYP1A2, CYP2B6, CYP2D6 and CYP2E1; 50 mM for CYP2C8 and CYP2C19; 25 mM for 2C9 and for pooled human liver microsomes; 200 mM for CYP3A4). For CYP2A6 100 mM Tris at pH 7.5 was substituted for KPO4. […] Reactions were initiated by addition of 0.4 pmoles recombinant human CYP450 co-expressed with CYP450 reductase in Sf9 cell microsomal membranes or 4 microgram pooled human liver microsomes and incubation at 37° C. After an initial incubation period at 37° C. 20 microliter CYP450 reactions were mixed with an 80 microliter luciferase reaction mix. […] Assays were also performed using 50 microliter CYP450 and luciferase reaction volumes (e.g., FIG. 3, panel B, table 3). Light output was measured immediately in a Turner Reporter, Turner 20/20 or Berthold Orion luminometer. Because the calibration of instruments from different manufacturers varies the quantitation of light output is instrument-specific and direct comparisons between instruments cannot be made.

[2] = target: T1, CYP1A2 (Homo sapiens, UniProt P05177); assay: Two-step CYP450/luciferase reaction, luciferin derivative evaluation as substrate; conditions: CYP450 incubation 60 minutes at 37° C., then luciferase
T1 sequence (P05177 1-516): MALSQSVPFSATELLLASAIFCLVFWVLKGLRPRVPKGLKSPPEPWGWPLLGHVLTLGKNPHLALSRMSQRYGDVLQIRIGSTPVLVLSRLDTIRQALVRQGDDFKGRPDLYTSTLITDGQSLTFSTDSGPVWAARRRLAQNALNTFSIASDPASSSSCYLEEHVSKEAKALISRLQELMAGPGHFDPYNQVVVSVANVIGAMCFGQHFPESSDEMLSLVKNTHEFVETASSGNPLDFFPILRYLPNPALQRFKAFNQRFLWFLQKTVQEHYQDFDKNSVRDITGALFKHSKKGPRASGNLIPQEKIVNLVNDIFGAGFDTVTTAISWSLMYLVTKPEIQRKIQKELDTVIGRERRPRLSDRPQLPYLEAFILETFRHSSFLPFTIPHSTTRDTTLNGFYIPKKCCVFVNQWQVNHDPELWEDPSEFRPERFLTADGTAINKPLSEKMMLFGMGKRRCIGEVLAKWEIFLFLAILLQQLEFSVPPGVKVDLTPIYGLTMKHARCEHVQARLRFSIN
Procedure: as §1
(§2) O-dealkylation and hydroxylation are common CYP450 catalyzed xenobiotic transformations (9). […] The CYP450 activities tested are contained in microsome fractions from insect cells that over-express a single recombinant human CYP450 isoform in combination with NADPH CYP450 reductase. It was reasoned that if CYP450s dealkylated or hydroxylated the luciferin derivatives at the 6′ position, authentic luciferin would be generated that could be detected enzymatically in a light generating firefly luciferase reaction as described by the equation in FIG. 1.
(§3) The panel included CYP1A1, CYP1A2, CYP2A6, CYP2B6, CYP2C8, CYP2C9, CYP2C19, CYP2D6, CYP2E1 and CYP3A4. After an initial incubation with CYP450, luciferase and its requisite cofactors were added and light output was monitored (FIGS. 3 and 9).

[3] = target: T2, CYP2C9 (Homo sapiens, UniProt P11712); assay: as above; conditions: for Light output over controls with CYP2C9: CYP450 incubation 60 minutes at 37° C., then luciferase
Procedure: as §1, §2, §3
Target sequence in this assay (P11712 whole entry): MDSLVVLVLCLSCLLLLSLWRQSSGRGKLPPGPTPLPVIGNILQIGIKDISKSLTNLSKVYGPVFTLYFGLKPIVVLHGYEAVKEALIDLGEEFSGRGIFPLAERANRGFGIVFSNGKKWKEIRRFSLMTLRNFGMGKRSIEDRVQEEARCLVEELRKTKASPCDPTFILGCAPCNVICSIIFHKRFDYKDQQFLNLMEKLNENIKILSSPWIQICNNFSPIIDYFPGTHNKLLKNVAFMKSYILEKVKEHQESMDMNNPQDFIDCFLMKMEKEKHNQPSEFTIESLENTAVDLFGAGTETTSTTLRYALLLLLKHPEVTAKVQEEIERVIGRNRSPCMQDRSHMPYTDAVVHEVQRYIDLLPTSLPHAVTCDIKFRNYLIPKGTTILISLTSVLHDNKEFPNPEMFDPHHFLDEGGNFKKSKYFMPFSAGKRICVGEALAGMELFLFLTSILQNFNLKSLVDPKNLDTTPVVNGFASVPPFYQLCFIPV

[4] = target: T2, CYP2C9; assay: CYP450-catalyzed conversion of luciferin derivatives to luciferin (HPLC); type: biochemical; conditions: 100 micromolar, 37 C, HPLC with fluorescence detection
Target sequence in this assay (P11712 whole entry, species assumed): as the sequence (P11712 whole entry) above

[5] = target: T2, CYP2C9; assay: One-step CYP450/luciferase reaction; type: biochemical; set-up: purchased GenTest (Woburn, Mass.); host or cells: Sf9 insect cells; conditions: 37° C.
Procedure: (§4) Luciferin derivatives were evaluated as P450 substrates and luciferase pro-substrates using this procedure.
Target sequence in this assay (P11712 whole entry): as above

[6] = target: T3, CYP2C8 (Homo sapiens, UniProt P10632); conditions: CYP450 incubation 60 minutes at 37° C., then luciferase
T3 sequence (P10632 1-490): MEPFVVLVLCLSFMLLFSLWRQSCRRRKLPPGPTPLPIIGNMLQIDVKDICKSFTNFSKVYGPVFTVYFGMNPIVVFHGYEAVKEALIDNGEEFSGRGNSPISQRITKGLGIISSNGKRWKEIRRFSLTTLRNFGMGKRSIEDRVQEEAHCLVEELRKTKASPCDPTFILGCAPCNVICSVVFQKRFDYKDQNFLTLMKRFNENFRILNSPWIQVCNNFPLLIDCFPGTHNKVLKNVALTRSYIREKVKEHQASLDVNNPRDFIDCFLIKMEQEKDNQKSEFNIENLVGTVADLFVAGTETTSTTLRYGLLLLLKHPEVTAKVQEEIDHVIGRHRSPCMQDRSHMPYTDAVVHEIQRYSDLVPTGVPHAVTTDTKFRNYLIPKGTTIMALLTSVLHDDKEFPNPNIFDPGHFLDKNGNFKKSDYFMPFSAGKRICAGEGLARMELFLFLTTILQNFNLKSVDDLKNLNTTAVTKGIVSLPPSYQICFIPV
Procedure: as §1, §2, §3

[7] = target: T4, CYP3A4 (Homo sapiens, UniProt P08684)
T4 sequence (P08684 whole entry): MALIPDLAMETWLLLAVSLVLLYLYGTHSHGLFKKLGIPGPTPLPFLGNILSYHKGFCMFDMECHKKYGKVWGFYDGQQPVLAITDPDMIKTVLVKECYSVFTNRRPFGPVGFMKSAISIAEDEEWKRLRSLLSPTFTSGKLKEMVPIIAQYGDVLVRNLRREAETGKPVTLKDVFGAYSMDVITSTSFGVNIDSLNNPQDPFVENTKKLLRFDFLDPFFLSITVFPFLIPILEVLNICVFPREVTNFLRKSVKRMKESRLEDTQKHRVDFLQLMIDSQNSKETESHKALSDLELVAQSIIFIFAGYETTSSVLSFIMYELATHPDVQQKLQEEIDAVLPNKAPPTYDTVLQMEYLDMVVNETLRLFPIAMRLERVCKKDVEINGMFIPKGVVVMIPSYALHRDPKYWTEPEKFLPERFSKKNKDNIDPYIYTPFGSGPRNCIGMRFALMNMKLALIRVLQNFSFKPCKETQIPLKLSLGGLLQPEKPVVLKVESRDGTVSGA
Procedure: as §1, §2, §3

[8] = target: T4, CYP3A4; assay: One-step CYP450/luciferase reaction; conditions: 37° C.
Procedure: as §4

[9] = target: T5, CYP1A1 (Homo sapiens, UniProt P04798); conditions: CYP450 incubation 60 minutes at 37° C., then luciferase
T5 sequence (P04798 1-512): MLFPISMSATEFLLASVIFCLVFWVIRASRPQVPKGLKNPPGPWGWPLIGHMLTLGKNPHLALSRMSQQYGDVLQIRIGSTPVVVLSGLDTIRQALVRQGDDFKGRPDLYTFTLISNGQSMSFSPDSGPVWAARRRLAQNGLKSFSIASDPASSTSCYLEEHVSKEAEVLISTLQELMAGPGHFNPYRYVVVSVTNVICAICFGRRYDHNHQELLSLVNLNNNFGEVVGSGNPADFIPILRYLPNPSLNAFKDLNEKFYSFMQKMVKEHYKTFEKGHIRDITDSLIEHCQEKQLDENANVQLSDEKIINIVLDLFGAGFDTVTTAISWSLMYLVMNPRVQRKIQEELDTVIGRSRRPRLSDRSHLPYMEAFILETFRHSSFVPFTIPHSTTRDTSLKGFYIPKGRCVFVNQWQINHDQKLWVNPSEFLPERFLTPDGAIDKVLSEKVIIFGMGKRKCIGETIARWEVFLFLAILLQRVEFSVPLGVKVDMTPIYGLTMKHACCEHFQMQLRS
Procedure: as §1, §2, §3

[10] = target: T5, CYP1A1; assay: CYP450-catalyzed conversion of luciferin derivatives to luciferin (HPLC); conditions: 100 micromolar, 37 C, HPLC with fluorescence detection
Procedure: At various time intervals, the reactions were stopped by the addition of Tergitol to 0.1% (v/v) and flash freezing in liquid nitrogen. 95 microliter aliquots of each reaction mixture were subjected to fractionation by HPLC. […] Separation was achieved on a 5 micron Adsorbosphere HS C18 column (Alltech Associates) with a solvent gradient of 0.05M KH2PO4/pH 6 (solvent A) and 80:20 acetonitrile/water (solvent B). The gradient conditions used were 15% B to 95% B over 10 min.

[11] = alpha-naphthoflavone 10 micromolar
[12] = two-step, 37° C., up to 60 minutes

## O=c1cc(-c2ccccc2)oc2c1ccc1ccccc12 [Alpha-Naphpthoflavone, alpha-naphthoflavone]
[1]; [11]
  Effect on activity against Luc BE: slight stimulation
[1]; substrates H-Luc, Luc ME, Luc EE, Luc BE, alpha-naphthoflavone 10 micromolar
  Inhibition of microsomal light output: lack of inhibition

## O=C(O)C1CSC(c2nc3ccccc3s2)=N1 (stereo not drawn) [H-Luc, 6′-Deoxyluciferin]
[2]
  Light output over controls with CYP1A2: increased light output over controls
[3]
  Light output over controls with CYP2C9: increased light output over controls
[3]; [12]
  Time-dependence of light output on CYP2C9/substrate incubation: increased in a linear fashion for up to 60 minutes
[4]
  Conversion to luciferin by CYP2C9: confirmed
[1]
  CYP450 activity detected with the substrate compared to Sf9 cell membranes: significant amounts of CYP450 activity was detected
[5]
  Light output over time, one-step with CYP2C9: increasing to a maximum by about 30 minutes and declining thereafter

## CC(=O)N1CCN(c2ccc(OCC3COC(Cn4ccnc4)(c4ccc(Cl)cc4Cl)O3)cc2)CC1 (stereo not drawn) [Ketoconazole, ketoconazole]
[1]; substrate H-Luc, sulfaphenazole and ketoconazole 100 micromolar
  Inhibition of light output with H-Luc: Partial inhibition
[1]; [11]
  Effect on activity against Luc BE: Inhibition

## O=C(O)[C@H]1CSC(c2nc3ccc(OCc4ccccc4)cc3s2)=N1 [Luc BE, Luciferin 6′-benzyl ether]
[3]
  Light output over controls with CYP2C9: increased significantly
[6]
  Light output over controls with CYP2C8: increased significantly
[7]; CYP450 incubation 60 minutes at 37° C., then luciferase
  Light output over controls with CYP3A4: increased significantly
[7]; [12]
  Time-dependence of light output on CYP3A4/substrate incubation: increased in a linear fashion for up to 60 minutes
[8]
  Difference in light output to -CYP450 control, one-step with CYP3A4: modest
[1]
  CYP450 activity detected with the substrate compared to Sf9 cell membranes: significant amounts of CYP450 activity was detected

## O=C(O)[C@H]1CSC(c2nc3ccc(OCCCl)cc3s2)=N1 [Luc CEE, Luciferin 6′-(2-chloroethyl)ether]
[2]
  Light output over controls with CYP1A2: increased significantly
[3]
  Light output over controls with CYP2C9: increased significantly
[9]
  Light output over controls with CYP1A1: increased significantly
[6]
  Light output over controls with CYP2C8: increased significantly
[10]
  Conversion to luciferin by CYP1A1: confirmed

## CCOc1ccc2nc(C3=N[C@@H](C(=O)O)CS3)sc2c1 [Luc EE, luciferin 6′ ethyl ether]
[2]
  Light output over controls with CYP1A2: increased significantly
[3]
  Light output over controls with CYP2C9: increased significantly
[9]
  Light output over controls with CYP1A1: increased significantly
[6]
  Light output over controls with CYP2C8: increased significantly
[1]
  CYP450 activity detected with the substrate compared to Sf9 cell membranes: significant amounts of CYP450 activity was detected

## Nc1ccc(S(=O)(=O)Nc2ccnn2-c2ccccc2)cc1 [Sulfaphenazole, sulfaphenazole]
[1]
  Inhibition of light output with H-Luc: near complete inhibition
